Experimental data from article PMC9505425, “Targeting of the Mitochondrial TET1 Protein by Pyrrolo[3,2-b]pyrrole Chelators” (International Journal of Molecular Sciences, 2022).
Several values for one entry are separate records, joined by “and”; a condition that tells them apart may be missing. Identical values can stand only once.

Experiments:
[1] = MTT cytotoxicity assay, HF-P4; type: cell-based, human; details: human, HF-P4 normal human dermal fibroblasts, repeats, read-out: Cell viability %
How it was run: (§1)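 Cells seeded at 1.0 × 10^5 per well, grown 24 h, then exposed 48 h to compounds at 0.1–20 μM (DMSO ≤1%). MTT added for 2 h, formazan dissolved in DMSO, absorbance read at 570 nm. IC50 calculated relative to untreated cells (100%).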

HF-P4 cells = test: MTT cytotoxicity assay, HF-P4; type: cell-based, human; details: 48 h; for Cell viability %: repeats
How it was run: as §1

H-1299 cells = test: MTT cytotoxicity assay, H-1299; type: cell-based, human
How it was run: (§2)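 Cells seeded at 1.0 × 10^5/well, grown 24 h, then exposed 48 h to compounds at 0.1–20 μM (≤1% DMSO); U118-MG in DMEM, H1299 in RPMI 1640, both with 10% FBS, 37 °C. MTT 2 h, formazan in DMSO read at 570 nm; IC50 relative to untreated cells (100%).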

U-118 MG cells = test: MTT cytotoxicity assay, U-118 MG; type: cell-based, human; details: 48 h
How it was run: as §2

CCN(CC)c1ccc(/C=N/NC(=O)c2ccc(-c3cc4c(cc(-c5ccc(C(=O)N/N=C/c6ccc(N(CC)CC)cc6O)cc5)n4-c4ccc(C)cc4)n3-c3ccc(C)cc3)cc2)c(O)c1 [Compound 2]
viability at 48 h, 0.5 µM ([1]; HF-P4, 500 nM): 120% | viability at 48 h, 0.75 µM ([1]; HF-P4, 750 nM): 100% | viability at 48 h, 1 µM ([1]; HF-P4, 1 uM): 107% | viability at 48 h, 5 µM ([1]; HF-P4, 5 uM): 104% | viability at 48 h, 7.5 µM ([1]; HF-P4, 7.5 uM): 84.4% | viability at 48 h, 10 µM ([1]; HF-P4, 10 uM): 83.1% | viability at 48 h, 15 µM ([1]; HF-P4, 15 uM): 69.4% | viability at 48 h, 20 µM ([1]; HF-P4, 20 uM): 60.3% | Cell viability % (HF-P4 cells; HF-P4, 100 nM, 0.1 µM): 112.667% and 100.0956% and 124.6811% | Cell viability % (HF-P4 cells; HF-P4, 500 nM, 0.5 µM): 121.1654% and 117.1851% | Cell viability % (HF-P4 cells; HF-P4, 750 nM, 0.75 µM): 106.3799% and 108.6149% | Cell viability % (HF-P4 cells; HF-P4, 1 uM, 1 µM): 107.7419% and 92.48% | Cell viability % (HF-P4 cells; HF-P4, 2.5 uM, 2.5 µM): 91.9392% and 112.4492% and 91.41% | Cell viability % (HF-P4 cells; HF-P4, 5 uM, 5 µM): 91.3% and 88.77% | Cell viability % (HF-P4 cells; HF-P4, 7.5 uM, 7.5 µM): 87.79% and 98.14% | Cell viability % (HF-P4 cells; HF-P4, 10 uM, 10 µM): 82.92% and 77.13% | Cell viability % (HF-P4 cells; HF-P4, 15 uM, 15 µM): 82.13% and 69.58% | Cell viability % (HF-P4 cells; HF-P4, 20 uM, 20 µM): 51.8655% and 56.81% | IC50 (HF-P4 cells; Homo sapiens, MTT): > 20 µM | Cell viability % (H-1299 cells; H-1299, 100 nM, 48 h, repeats, 0.1 µM): 61.37% and 71.3% | Cell viability % (H-1299 cells; H-1299, 500 nM, 48 h, repeats, 0.5 µM): 66.22% and 72.36% | Cell viability % (H-1299 cells; H-1299, 750 nM, 48 h, repeats, 0.75 µM): 70.74% and 81.49% | Cell viability % (H-1299 cells; H-1299, 1 uM, 48 h, repeats, 1 µM): 69.87% and 82.47% | Cell viability % (H-1299 cells; H-1299, 2.5 uM, 48 h, repeats, 2.5 µM): 66.9068% and 60.82% | Cell viability % (H-1299 cells; H-1299, 5 uM, 48 h, repeats, 5 µM): 53.26% and 57.69% | Cell viability % (H-1299 cells; H-1299, 7.5 uM, 48 h, repeats, 7.5 µM): 36.17% and 50.75% | Cell viability % (H-1299 cells; H-1299, 10 uM, 48 h, repeats, 10 µM): 38.48% and 47.35% | Cell viability % (H-1299 cells; H-1299, 15 uM, 48 h, repeats, 15 µM): 39.64% and 37.79% | Cell viability % (H-1299 cells; H-1299, 20 uM, 48 h, repeats, 20 µM): 32.04% and 28.82% | viability at 0.1 µM (H-1299 cells; Homo sapiens, NCI-H1299, 48 h, H-1299, 100 nM, repeats, read-out: Cell viability %): 77.6% | viability at 0.5 µM (H-1299 cells; Homo sapiens, NCI-H1299, 48 h, H-1299, 500 nM, repeats, read-out: Cell viability %): 71.5% | viability at 0.75 µM (H-1299 cells; Homo sapiens, NCI-H1299, 48 h, H-1299, 750 nM, repeats, read-out: Cell viability %): 74.1% | viability at 1 µM (H-1299 cells; Homo sapiens, NCI-H1299, 48 h, H-1299, 1 uM, repeats, read-out: Cell viability %): 72.4% | viability at 2.5 µM (H-1299 cells; Homo sapiens, NCI-H1299, 48 h, H-1299, 2.5 uM, repeats, read-out: Cell viability %): 73.2% | viability at 5 µM (H-1299 cells; Homo sapiens, NCI-H1299, 48 h, H-1299, 5 uM, repeats, read-out: Cell viability %): 53.2% | viability at 7.5 µM (H-1299 cells; Homo sapiens, NCI-H1299, 48 h, H-1299, 7.5 uM, repeats, read-out: Cell viability %): 42.3% | viability at 10 µM (H-1299 cells; Homo sapiens, NCI-H1299, 48 h, H-1299, 10 uM, repeats, read-out: Cell viability %): 45.5% | viability at 15 µM (H-1299 cells; Homo sapiens, NCI-H1299, 48 h, H-1299, 15 uM, repeats, read-out: Cell viability %): 39.8% | viability at 20 µM (H-1299 cells; Homo sapiens, NCI-H1299, 48 h, H-1299, 20 uM, repeats, read-out: Cell viability %): 28.6% | IC50 (H-1299 cells; Homo sapiens, NCI-H1299, MTT, 48 h): 8.94 µM | viability at 0.1 µM (U-118 MG cells; Homo sapiens, U-118-MG, U-118 MG, 100 nM, repeats, read-out: Cell viability %): 82.5% | viability at 0.5 µM (U-118 MG cells; Homo sapiens, U-118-MG, U-118 MG, 500 nM, repeats, read-out: Cell viability %): 64% | viability at 0.75 µM (U-118 MG cells; Homo sapiens, U-118-MG, U-118 MG, 750 nM, repeats, read-out: Cell viability %): 70% | viability at 1 µM (U-118 MG cells; Homo sapiens, U-118-MG, U-118 MG, 1 uM, repeats, read-out: Cell viability %): 84.1% | viability at 2.5 µM (U-118 MG cells; Homo sapiens, U-118-MG, U-118 MG, 2.5 uM, repeats, read-out: Cell viability %): 70.7% | viability at 5 µM (U-118 MG cells; Homo sapiens, U-118-MG, U-118 MG, 5 uM, repeats, read-out: Cell viability %): 62.1% | viability at 7.5 µM (U-118 MG cells; Homo sapiens, U-118-MG, U-118 MG, 7.5 uM, repeats, read-out: Cell viability %): 66.3% | viability at 10 µM (U-118 MG cells; Homo sapiens, U-118-MG, U-118 MG, 10 uM, repeats, read-out: Cell viability %): 57.9% | viability at 15 µM (U-118 MG cells; Homo sapiens, U-118-MG, U-118 MG, 15 uM, repeats, read-out: Cell viability %): 51.1% | viability at 20 µM (U-118 MG cells; Homo sapiens, U-118-MG, U-118 MG, 20 uM, repeats, read-out: Cell viability %): 39.1% | IC50 (U-118 MG cells; Homo sapiens, U-118-MG, MTT): > 20 µM | Cell viability % (U-118 MG cells; U-118 MG, 100 nM, repeats, 0.1 µM): 87.05% | Cell viability % (U-118 MG cells; U-118 MG, 500 nM, repeats, 0.5 µM): 68.29% and 66.76% | Cell viability % (U-118 MG cells; U-118 MG, 750 nM, repeats, 0.75 µM): 77.02% and 67.38% | Cell viability % (U-118 MG cells; U-118 MG, 1 uM, repeats): 82.08% and 80.29% | Cell viability % (U-118 MG cells; U-118 MG, 2.5 uM, repeats): 64.2773% and 70.34% | Cell viability % (U-118 MG cells; U-118 MG, 5 uM, repeats): 65.5% and 62.23% | Cell viability % (U-118 MG cells; U-118 MG, 7.5 uM, repeats): 62.32% and 65.79% | Cell viability % (U-118 MG cells; U-118 MG, 10 uM, repeats): 65.41% and 61.07% | Cell viability % (U-118 MG cells; U-118 MG, 15 uM, repeats): 55.67% and 56.45% | Cell viability % (U-118 MG cells; U-118 MG, 20 uM, repeats): 44.6621% and 48.66% | melting point: 306 to 307 °C
